Data as given in patent US20200055891A1, “NOVEL PHOSPHOTRIAZOLE MRNA 5'-END CAP ANALOGS, COMPOSITION COMPRISING THE SAME, RNA MOLECULE INCORPORATING THE SAME, USES THEREOF AND METHOD OF SYNTHESIZING RNA MOLECULE, PROTEIN OR PEPTIDE” (UNIWERSYTET WARSZAWSKI, priority 2016, published 2020).
Like-named read-outs stand apart in the source and are kept apart here.

What was measured:
[1] = target: T1, eIF4E (Mus musculus, UniProt P63073); settings: reference cap analogues, values from refs 42/43; cited from earlier work
[2] = Hydrolysis in D2O seen in NMR spectra; assay type: physicochemical; settings: dissolved in D2O just before NMR measurement; given if higher than 5%
Method: Some cap analogues hydrolyzed in D2O gradually. Although pure compounds (see HPLC profiles, Supporting Information 2) were dissolved in D2O just before measurements, the spectra indicated some level of hydrolysis. % of hydrolysis is provided along with compound characterization data, if higher than 5%.

[3] = target: T2, SP6 RNA polymerase (Enterobacteria phage SP6, UniProt P06221); assay: Capping efficiency: incorporation of cap analogues at the 5′ end of short transcripts by in vitro transcription; assay type: biochemical; settings: 1.25 mM cap analogue, 0.125 mM GTP
T2 construct: purchased New England BioLabs
T2 sequence (P06221 1-874): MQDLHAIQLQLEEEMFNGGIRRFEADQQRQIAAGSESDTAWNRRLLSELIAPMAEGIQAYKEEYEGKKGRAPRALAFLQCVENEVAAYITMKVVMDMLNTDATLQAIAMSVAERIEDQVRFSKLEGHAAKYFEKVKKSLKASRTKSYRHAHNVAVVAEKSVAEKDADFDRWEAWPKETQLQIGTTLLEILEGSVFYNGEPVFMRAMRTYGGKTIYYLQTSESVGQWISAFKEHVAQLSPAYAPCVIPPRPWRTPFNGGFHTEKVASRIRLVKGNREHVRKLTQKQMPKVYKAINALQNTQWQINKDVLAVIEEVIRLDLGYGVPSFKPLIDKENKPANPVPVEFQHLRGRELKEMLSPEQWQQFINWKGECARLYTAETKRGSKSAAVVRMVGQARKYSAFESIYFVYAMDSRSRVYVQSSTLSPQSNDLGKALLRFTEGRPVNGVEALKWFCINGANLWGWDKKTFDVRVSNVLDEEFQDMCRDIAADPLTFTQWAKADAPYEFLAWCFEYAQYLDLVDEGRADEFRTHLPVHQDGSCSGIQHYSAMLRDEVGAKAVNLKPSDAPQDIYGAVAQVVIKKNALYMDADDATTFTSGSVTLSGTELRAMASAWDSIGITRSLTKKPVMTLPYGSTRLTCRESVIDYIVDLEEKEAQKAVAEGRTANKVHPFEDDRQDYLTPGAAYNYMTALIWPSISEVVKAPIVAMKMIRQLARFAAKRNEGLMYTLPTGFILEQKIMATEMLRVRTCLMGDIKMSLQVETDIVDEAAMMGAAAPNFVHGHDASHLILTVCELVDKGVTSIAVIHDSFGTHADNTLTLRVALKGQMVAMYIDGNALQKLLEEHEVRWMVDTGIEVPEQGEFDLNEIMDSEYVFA
Method: Prior to in vitro transcription annealing of a template was performed. DNA1 (SEQ ID NO: 1) and DNA2 (SEQ ID NO: 2) (20 μM each) were incubated in the presence of 4 mM Tris-HCl pH 8.0, 15 mM NaCl and 0.1 mM EDTA at 95° C. for 2 min and then at room temperature for 30 min. After 10-fold dilution the mixture was directly used for in vitro transcription.
The reaction was quenched by addition of 2 μl of 0.5 M EDTA pH 8.0 and purified with RNA Clean&Concentrator-5 kit (Zymo Research) to afford capped RNA1 (SEQ ID NO: 4) strands.
To reduce heterogeneity, each capped RNA1 (11.42 ng/μl, ca. 1 μM) was incubated in presence of 50 mM Tris-HCl pH 8.0, 50 mM MgCl2, RiboLock RNase Inhibitor (ThermoFisher Scientific) (2.0 U/μl) and DNA3 (SEQ ID NO: 3) (1 μM) at 37° C. for 1 h to afford RNA2 (SEQ ID NO: 5).^44 The reaction was stopped by freezing in liquid nitrogen and directly analyzed by PAGE (FIG. 3).
Relative bands intensity was determined using CLIQS v1.0 program.

[4] = system: Rabbit Reticulocyte Lysate; assay: Translation efficiency of capped firefly luciferase mRNA in Rabbit Reticulocyte Lysate System; assay type: biochemical; settings: relative, m^7GpppG = 1
Method: The reaction was quenched by addition of 2 μl of 0.5 M EDTA pH 8.0 and purified with NucleoSpin RNA Clean-up XS kit (Macherey-Nagel) to afford luciferase-coding RNA strands capped with appropriate cap analogue.
For each capped luciferase-coding RNA four diluted solutions were prepared—3.0 ng/μl, 1.5 ng/μl, 0.75 ng/μl, 0.375 ng/μl. Translation studies were performed using Rabbit Reticulocyte Lysate System (Promega). 9 μl of a mixture containing Rabbit Reticulocyte Lysate (4 μl), Amino Acid Mixture Minus Leucine (0.05 μl of 1 mM solution), Amino Acid Mixture Minus Methionine (0.05 μl of 1 mM solution), potassium acetate (1.9 μl of 1 M solution), MgCl2 (0.4 μl of 25 mM solution) and 2.1 μl of water was incubated at 30° C. for 1 h after which 1 μl of appropriate luciferase-coding RNA solution was added and incubation of the reaction was continued at 37° C. for another hour. The reaction was stopped by freezing in liquid nitrogen.
Translation efficiency was determined using Luciferase Reporter System (Promega). The samples were defrosted just before the experiment. To every sample 50 μl of Luciferase Assay Reagent was added just before measurement of luminescence on Synergy H1 Microplate Reader (Bio Tek). The measurement were performed for every four samples independently due to low stability of luminescence signal. The results are presented on. FIG. 4 as proportions between regression coefficients of linear relationships between capped luciferase-coding RNA concentration in translation reaction (300 pg/μl, 150 pg/μl, 75 pg/μl, 37.5 pg/μl) and corresponding luminescence signal.

[5] = target: T1, eIF4E; assay: Association constants (KAS) of cap analogue-eIF4E complexes, fluorescence quenching titration; assay type: binding; settings: 20° C., 50 mM Hepes/KOH pH 7.20, 100 mM KCl; weighted average of triplicate
Method: Association constants for cap analogue-eIF4E complexes were determined using fluorescence quenching titration method as described previously.^42 Measurements were performed using a quartz cuvette with optical path length of 4 mm for absorption and 10 mm for emission on LS-50B spectrofluorometer Perkin-Elmer Co. (Waltham, Mass., USA). Titration experiments were carried out at 20° C. in 50 mM Hepes/KOH buffer, pH 7.20 containing 100 mM KCl, 0.5 mM EDTA, and 1 mM DTT. During the experiment 1 μl aliquots of ligand solution was added to the 1400 μl of 0.1 μM protein solution. Protein fluorescence was monitored at 337 or 345 nm (excitation 280 or 295 nm, respectively). For data analysis fluorescence intensity correction was applied for sample dilution and inner filter effect. Association constants were determined by fitting theoretical dependence of fluorescence intensity on total ligand concentration. Each experiment was performed in triplicate, the association constants were calculated as weighted averages.

T1 sequence (P63073 28-217 limits assumed): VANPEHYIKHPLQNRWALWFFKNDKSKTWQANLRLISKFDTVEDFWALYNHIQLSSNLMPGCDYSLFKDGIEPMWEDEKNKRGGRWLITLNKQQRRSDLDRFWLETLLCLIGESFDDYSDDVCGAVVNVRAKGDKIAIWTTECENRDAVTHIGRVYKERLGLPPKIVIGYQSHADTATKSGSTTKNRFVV

Row | SMILES | KAS [1] | hydrolysis in D2O [2] | Capping efficiency [3] | Translation efficiency [4] | KAS [5]
1 | Cn1c[n+]([C@@H]2O[C@H](COP(=O)(O)OP(=O)([O-])O)[C@@H](O)[C@H]2O)c2nc(N)[nH]c(=O)c21 [m^7GDP] | 20.4 ± 1.5^42 μM^−1 | – | – | – | –
2 | C[n+]1cn([C@@H]2O[C@H](COP(=O)(O)NCCn3cc(P(=O)([O-])OP(=O)(O)OP(=O)(O)OC[C@H]4O[C@@H](n5cnc6c(=O)[nH]c(N)nc65)C(O)C4O)nn3)C(O)C2O)c2nc(N)[nH]c(=O)c21 (stereo partly shown) [m^7GpNHC2H4tpppG, m^7GpNHC2H4-triazole-pppG] | – | 9% | 57% | 0.103 ± 0.027 | 3.10 ± 0.18 µM⁻¹
3 | Cn1c[n+]([C@@H]2O[C@H](COP(=O)(O)OP(=O)([O-])OP(=O)(O)OC[C@H]3O[C@@H](n4cnc5c(=O)[nH]c(N)nc54)[C@H](O)[C@@H]3O)[C@@H](O)[C@H]2O)c2nc(N)[nH]c(=O)c21 [m^7GpppG, reference compound] | 12.5 ± 0.3^43 μM^−1 | – | 90% | 1 | –
4 | C[n+]1cn([C@@H]2O[C@H](COP(=O)(O)OP(=O)(O)OP(=O)([O-])c3cn(CCNP(=O)(O)OC[C@H]4O[C@@H](n5cnc6c(=O)[nH]c(N)nc65)C(O)C4O)nn3)C(O)C2O)c2nc(N)[nH]c(=O)c21 (stereo partly shown) [m^7GppptC2H4NHpG, m^7Gppp-triazole-C2H4NHpG] | – | 13% | 52% | 0.89 ± 0.11 | 21.94 ± 0.69 µM⁻¹
5 | CO[C@H]1[C@@H](O)[C@H]([n+]2cn(C)c3c(=O)[nH]c(N)nc32)O[C@@H]1COP(=O)([O-])OP(=O)(O)OP(=O)(O)OC[C@H]1O[C@@H](n2cnc3c(=O)[nH]c(N)nc32)[C@H](O)[C@@H]1O [m2^7,3′-OGpppG, reference compound] | 10.2 ± 0.6^43 μM^−1 | – | 83% | 1.526 ± 0.043 | –
6 | C[n+]1cn([C@@H]2O[C@H](COP(=O)(O)OP(=O)([O-])OP(=O)(O)Cc3cn(CCNP(=O)(O)OC[C@H]4O[C@@H](n5cnc6c(=O)[nH]c(N)nc65)C(O)C4O)nn3)C(O)C2O)c2nc(N)[nH]c(=O)c21 (stereo partly shown) [m^7GpppCH2tC2H4NHpG, m^7GpppCH2-triazole-C2H4NHpG] | – | 9% | 44% | 0.94 ± 0.11 | 18.21 ± 0.72 µM⁻¹
7 | C[n+]1cn([C@@H]2O[C@H](COP(=O)(O)NCCn3cc(CP(=O)(O)OP(=O)([O-])OP(=O)(O)OC[C@H]4O[C@@H](n5cnc6c(=O)[nH]c(N)nc65)C(O)C4O)nn3)C(O)C2O)c2nc(N)[nH]c(=O)c21 (stereo partly shown) [m^7GpNHC2H4tCH2pppG, m^7GpNHC2H4-triazole-CH2pppG] | – | 7% | 62% | 0.060 ± 0.004 | –
